Laboratory results: PMC4503722, “Novel Phenotypic Outcomes Identified for a Public Collection of Approved Drugs from a Publicly Accessible Panel of Assays” (PLoS ONE, 2015)
Read-outs that look alike come from different tables or passages of the source.

What was measured:
[1] = system: endothelial tube formation in co-cultures of ECFCs and ADSCs treated with VEGF; test: cells; format: cell-based, human
HT-29 = test: cells; format: cell-based; details: for IC50: read-out: Basal_Viability ATP HT-29 summarized IC50
Colo320 = test: cells; format: cell-based; details: for IC50: read-out: Basal_Viability ATP Colo 320 summarized IC50
[2] = system: ECFC/ADSC co-culture cell nuclei number
SNU-C1 = test: cells; format: cell-based; details: for IC50: read-out: Basal_Viability ATP SNU-C1 summarized IC50; for IC50/EC50, Basal_Viability ATP SNU-C1 (assay number 30) / Basal_Viability ATP SNU-C1 IC50/EC50: basal; for Basal_Viability ATP SNU-C1 IC50/EC50: assay number 30
SW480 = test: cells; format: cell-based; details: for IC50: read-out: Basal_Viability ATP SW480 summarized IC50
HCT116 = test: cells; format: cell-based; details: for IC50: read-out: Basal_Viability ATP HCT116 summarized IC50
HeLa cells = test: cells; format: cell-based;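 on Hela CellCycMod PI 4N summarized IC50: value tracks stimulation of 4N DNA content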
DLD-1 = test: cells; format: cell-based; details: for IC50: read-out: Basal_Viability ATP DLD-1 summarized IC50
RKO = test: cells; format: cell-based; details: for IC50: read-out: Basal_Viability ATP RKO summarized IC50
[3] = system: HCT116 cells treated with a GSK3β inhibitor; test: cells; format: cell-based; details: assay number 26; GSK3b inhibitor pretreated

How did the IC50 ([1]; read-out: VEGF_ADSC\ECFC Angio CD31 TubeArea summarized IC50) turn out when `Oc1c(I)cc(Cl)c2cccnc12` [NCGC00016391-13] was run?
Its IC50 is > 10 µM.

And the IC50 (HT-29)?
Its IC50 is 18.6 µM.

What about the IC50 (Colo320) of the same molecule?
Its IC50 is 0.586 µM.

What about the IC50 ([2]; read-out: VEGF_ADSC\ECFC Angio Hoechst NucArea summarized IC50) of the same molecule?
Its IC50 is > 10 µM.

What about the IC50 (SNU-C1) of the same molecule?
The IC50 was 0.475 µM.

And the IC50 (SW480)?
Its IC50 is 0.441 µM.

What about the IC50 (HCT116) of the same molecule?
Its IC50 is 0.392 µM.

And the IC50 (HeLa cells; read-out: Hela CellCycMod PI 2N summarized IC50)?
The IC50 was > 10 µM.

What about the IC50 (HeLa cells; read-out: Hela CellCycMod PI 4N summarized IC50) of the same molecule?
The IC50 was > 10 µM.

What about the IC50 (HeLa cells; read-out: Hela CellCycMod PI Cell Number summarized IC50) of the same molecule?
Its IC50 is > 10 µM.

What about the IC50 (HeLa cells; read-out: Hela CellCycMod PI MI summarized IC50) of the same molecule?
The IC50 was > 10 µM.

What about the IC50 (DLD-1) of the same molecule?
The IC50 was 0.345 µM.

Which results are given for `Cc1cccc(Cc2cnc[nH]2)c1C.Cl` [NCGC00182057-03]?
IC50/EC50, Basal_Viability ATP HT-29 (assay number 28) (HT-29; basal): > 20 µM; IC50/EC50, Basal_Viability ATP Colo 320 (assay number 27) (Colo320; basal): > 20 µM; IC50/EC50, Basal_Viability ATP SNU-C1 (assay number 30) (SNU-C1): > 20 µM; IC50/EC50, Basal_Viability ATP RKO (assay number 29) (RKO; basal): > 20 µM; IC50/EC50, Basal_Viability ATP SW480 (assay number 24) (SW480; basal): > 20 µM; IC50/EC50, Basal_Viability ATP HCT116 (assay number 25) (HCT116; basal): > 20 µM; IC50/EC50, Basal_Viability ATP DLD-1 (assay number 23) (DLD-1; basal): > 20 µM

Which results are given for `CC(C(=O)O)c1cccc(C(=O)c2ccccc2)c1` (stereo not drawn) [NCGC00015578-12]?
Basal_Viability ATP HT-29 IC50/EC50 (HT-29; assay number 28, basal): 14.387 µM; Basal_Viability ATP SNU-C1 IC50/EC50 (SNU-C1): 3.7959 µM; Basal_Viability ATP SW480 IC50/EC50 (SW480; assay number 24, basal): 10.2684 µM; Basal_Viability ATP HCT116 IC50/EC50 (HCT116; assay number 25, basal): 10.487 µM; Basal_Viability ATP DLD-1 IC50/EC50 (DLD-1; assay number 23, basal): 8.6441 µM

With `[N-]=[N+]=CC(=O)OC[C@H](N)C(=O)O` [NCGC00021876-04] as the molecule, how does the “Basal_Viability ATP HT-29 IC50/EC50” value (HT-29; assay number 28, basal) read?
The value was > 20 µM.

And the “Basal_Viability ATP SNU-C1 IC50/EC50” value (SNU-C1)?
Its value is > 20 µM.

And the “Basal_Viability ATP RKO IC50/EC50” value (RKO; assay number 29, basal)?
Its value is > 20 µM.

And the “Basal_Viability ATP SW480 IC50/EC50” value (SW480; assay number 24, basal)?
Its value is > 20 µM.

What about the “Basal_Viability ATP HCT116 IC50/EC50” value (HCT116; assay number 25, basal) of the same molecule?
The value was > 20 µM.

What about the “Basal_Viability ATP DLD-1 IC50/EC50” value (DLD-1; assay number 23, basal) of the same molecule?
Its value is > 20 µM.

For `Oc1c(Cl)cc(Cl)c(Cl)c1Cc1c(O)c(Cl)cc(Cl)c1Cl` [NCGC00091195-08], which IC50 (HT-29) is on record?
The IC50 was 0.46 µM.

And the IC50 (Colo320)?
The IC50 was 0.0572 µM.

And the IC50 (SNU-C1)?
The IC50 was 0.032 µM.

And the IC50 (RKO)?
The IC50 was 0.108 µM.

And the IC50 (SW480)?
Its IC50 is 0.003 µM.

And the IC50 (HCT116)?
The IC50 was 0.0312 µM.

And the IC50 (DLD-1)?
Its IC50 is 0.0157 µM.

With `COc1ccc(C(=O)c2ccccc2O)c(O)c1` [NCGC00016393-07] as the molecule, how does the IC50 (HT-29; assay number 28, basal) read?
The IC50 was > 20 µM.

What about the IC50 (Colo320; assay number 27, basal) of the same molecule?
The IC50 was > 20 µM.

And the IC50 (RKO; assay number 29, basal)?
The IC50 was > 20 µM.

What about the IC50 (SW480; assay number 24, basal) of the same molecule?
Its IC50 is > 20 µM.

And the IC50 (HCT116; assay number 25, basal)?
Its IC50 is > 20 µM.

And the IC50 (DLD-1; assay number 23, basal)?
Its IC50 is > 20 µM.

Which “VEGF_ADSC\ECFC Angio CD31 TubeArea IC50/EC50” value [1] does the source give for `Clc1ccc(C(Cn2ccnc2)OCc2ccc(Sc3ccccc3)cc2)c(Cl)c1` (stereo not drawn) [NCGC00253713-01] here?
The value was > 10 µM.

What about the “Basal_Viability ATP HT-29 IC50/EC50” value (HT-29; assay number 28) of the same molecule?
Its value is > 20 µM.

And the “Basal_Viability ATP Colo 320 IC50/EC50” value (Colo320; assay number 27)?
The value was 7.0587 µM.

And the “GSK3b inh pretreated_Viability ATP HCT116 IC50/EC50” value [3]?
The value was 6.7686 µM.

What about the “VEGF_ADSC\ECFC Angio Hoechst NucArea IC50/EC50” value [2] of the same molecule?
Its value is > 10 µM.

What about the “Basal_Viability ATP RKO IC50/EC50” value (RKO; assay number 29) of the same molecule?
Its value is 6.141 µM.

And the “Basal_Viability ATP SW480 IC50/EC50” value (SW480; assay number 24)?
Its value is 7.4367 µM.

What about the “Basal_Viability ATP HCT116 IC50/EC50” value (HCT116; assay number 25, basal) of the same molecule?
The value was 7.7123 µM.

And the “Basal_Viability ATP DLD-1 IC50/EC50” value (DLD-1; assay number 23)?
The value was 7.7564 µM.

What does the source list for `Cc1c(NC(=O)c2cccnc2)c(=O)n(-c2ccccc2)n1C` [NCGC00016605-08]?
IC50/EC50, Basal_Viability ATP HT-29 (assay number 28) (HT-29; basal): > 20 µM; IC50/EC50, Basal_Viability ATP Colo 320 (assay number 27) (Colo320; basal): > 20 µM; IC50/EC50, Basal_Viability ATP SNU-C1 (assay number 30) (SNU-C1): > 20 µM; IC50/EC50, Basal_Viability ATP RKO (assay number 29) (RKO; basal): > 20 µM; IC50/EC50, Basal_Viability ATP SW480 (assay number 24) (SW480; basal): > 20 µM; IC50/EC50, Basal_Viability ATP HCT116 (assay number 25) (HCT116; basal): > 20 µM; IC50/EC50, Basal_Viability ATP DLD-1 (assay number 23) (DLD-1; basal): > 20 µM

How did the “Basal_Viability ATP HT-29 IC50/EC50” value (HT-29; assay number 28, basal) turn out when `Cc1ccc(Cl)c(Nc2ccccc2C(=O)[O-])c1Cl.[Na+]` [NCGC00023217-08] was run?
Its value is > 20 µM.

And the “Basal_Viability ATP Colo 320 IC50/EC50” value (Colo320; assay number 27, basal)?
The value was > 20 µM.

And the “Basal_Viability ATP SNU-C1 IC50/EC50” value (SNU-C1)?
The value was > 20 µM.

What about the “Basal_Viability ATP RKO IC50/EC50” value (RKO; assay number 29, basal) of the same molecule?
The value was > 20 µM.

And the “Basal_Viability ATP SW480 IC50/EC50” value (SW480; assay number 24, basal)?
The value was > 20 µM.

And the “Basal_Viability ATP HCT116 IC50/EC50” value (HCT116; assay number 25, basal)?
Its value is > 20 µM.

And the “Basal_Viability ATP DLD-1 IC50/EC50” value (DLD-1; assay number 23, basal)?
The value was 15.1129 µM.
